According to patent US20250367121A1, “DOSAGE FORMS COMPRISING ACTIVE PHARMACEUTICAL INGREDIENTS” (AXSOME THERAPEUTICS, INC., priority 2018, published 2025):

Assay: clinical
Conditions: human, in vivo

Cmax: 20.7 ng/mL | Tmax: 45 min
SMILES: CN(C)CCc1c[nH]c2ccc(Cn3cncn3)cc12 [Rizatriptan, rizatriptan]
